Patent US20110064789A1, “DOCOSAHEXANOIC ACID AS INHIBITOR OF H. PYLORI” (priority 2009, published 2011)

Legend:
[1] = tested on: H. pylori; conditions: cited from earlier work
[2] = tested on: H. pylori SS1 strain; experiment: Efficiency of DHA versus standard therapy in H. pylori eradication in mice; format: in vivo, C57BL/6 mice; conditions: mice infected one month; DHA 15 days, standard therapy 7 days
Source text: C57BU6 mice have been infected with H. pylori SS1 strain for one month and proceed to treatment with DHA for 15 days or/and standard therapy for 7 days, as described elsewhere by Lee et al.^52 and van Zanten et al.^53. According to the standard therapy, mice received omeprazole (400 μmol/kg/day), metronidazole (14.2 μmol/kg/day) and clarithromycin (7.15 μmol/kg/day)^53.

[3] = tested on: H. pylori strain SS1; experiment: Mouse model for H. pylori gastric colonization, DHA in drinking water; format: in vivo; conditions: for stomach colonization / mice in which colonization by H. pylori occurred / inhibition of H. pylori growth (gastric colonization): DHA 50 μM in drinking water
Source text: Five-weeks-old specific pathogen-free C57BU6 male mice have been purchased from Charles River Laboratories (France). Animals were housed in microisolators in polycarbonate cages. Food has been supplied ad libitum. Standard diet was purchased from SAFE (Epinay/Orge, France). Animals were acclimatized for one week before inoculation. The experiments reported in the study were approved in advanced by the Central Animal Facility Committee of Institut Pasteur, in conformity with the French Ministry of Agriculture Guidelines for Animal Care.
H. pylori strain SS1 was grown on blood agar plates, harvested after 24 h and suspended in peptone broth. Twenty four mice (n=24) were orogastrically inoculated 100 μL of a suspension of 10^8 CFU/mL of H. pylori strain SS1, whereas non-infected groups of mice (n=24) were given 100 μL of peptone broth. Mice were sacrificed 1 or 3 months after infection. For each time point, the experiments consisted in 4 groups of mice, 2 groups received drinking water and for the two other groups, drinking water was supplemented with DHA at a final concentration of 50 μM. Dose of 50 μM corresponds more precisely to a quantity of 0.068 mg of DHA received by each mouse each day. Each two groups consisted of one uninfected-group (n=6) and one H. pylori strain SS1 infected-group (n=6). Stomachs were isolated from each mouse and used to measure H. pylori colonization as previously described by Ferrero et al.^51
C57BL/6 mice were therefore infected with SS1 strain and start on DHA treatment for the whole period of the experiment, which was given in their drinking water in a concentration of 50 μM. Mice were sacrificed at one, three, six or nine months of infection.

[4] = tested on: H. pylori strains 26695 (ATCC 700392), SS1 and B128; experiment: In vitro incubation of H. pylori broth cultures with DHA added at time 0 (growth, viable CFU); format: cell-based, Helicobacter pylori; conditions: DHA 250 μM
[5] = tested on: H. pylori strains 26695, SS1 and B128; experiment: In vitro addition of DHA to a 12 hours H. pylori culture (bactericidal/bacteriostatic effect, CFU); format: cell-based, Helicobacter pylori; conditions: versus prior art doses
Protocol: Stock solutions of DHA were diluted at desired concentrations (from 10 μM to 1000 μM) in Brucella broth (BB) enriched with 10% FBS. […] Each experiment consisting of a control (bacterial medium) and bacteria incubated with DHA at 10 μ[…] and 1000 μM was performed in triplicate. DHA was added at the time 0 of the experiments or after 12 hours. H. pylori broth cultures were incubated microaerophilically, at 37° C. for 48 hours. Every 6 hours, the OD 600 nm of the cultures was measured and 200 μL samples were diluted and plated on blood agar plates for the numeration of viable bacteria (colony-forming-units (CFU)) after 48 hours of incubation at 37° C. The question as to whether DHA has a bactericidal effect was answered by conducting an experiment where DHA was added to a 12 hours H. pylori culture. FIG. 2 represents the viability of the three strains of H. pylori used. Addition of DHA after 12 hours of H. pylori growth led to a decrease of the ability to form CFU in a dose dependent manner.

[6] = tested on: H. pylori; conditions: in vitro assay of Thompson et al.; cited from earlier work

For CCC(C(=O)O)c1ccccc1 (stereo not shown) [2-phenylbutyrate], the “effect on growth of H. pylori” value [1] is listed as “ability to inhibit the growth of H. pylori”.
In the case of O=C(O)CCCc1ccccc1 [4-phenylbutyrate], the “effect on growth of H. pylori” value [1] is listed as “ability to inhibit the growth of H. pylori”.
In the case of CC/C=C\C/C=C\C/C=C\C/C=C\C/C=C\C/C=C\CCC(=O)O [DHA, docosahexaenoic acid], the lower gastric colonization [2] is reported as 10 times, the “dose that showed a higher inhibitory role in gastric colonization” value ([3]; 25, 50 and 100 μM tested in drinking water) is reported as 50 µM and the stomach colonization ([3]; after 1 month of infection) is reported as 0.47×10^5 CFU/g gastric tissue. The stomach colonization ([3]; after the third month) was 0.62×10^5 CFU/g gastric tissue, the “mice in which colonization by H. pylori occurred” value ([3]; first month of infection) was 20% and the “mice in which colonization by H. pylori occurred” value ([3]; third month) was 50%. For the same molecule, the “inhibition of H. pylori growth (gastric colonization)” value ([3]; nine months of infection) was “about 100 fold”, the “inhibition of H. pylori growth (gastric colonization)” value ([3]; one, three and six months of infection) was “approximately 10 fold” and the toxicity ([3]; DHA 50 μM in mice drinking water, 0.068 mg per mouse per day) was “no toxicity concerns”. For the same molecule, the “bacterial viability of strain 26695 as compared to SS1” value [4] was 100 times and the “doses giving bactericidal and bacteriostatic effects, lower than the prior art doses” value [5] was 5 to 10 times.
For CC/C=C\C/C=C\C/C=C\C/C=C\C/C=C\CCCC(=O)O [EPA], the “concentration that could inhibit the growth of H. Pylori” value [6] is listed as 0.2 mM.
In the case of CC/C=C\C/C=C\C/C=C\CCCCCCCC(=O)O [linolenic acid ω-3C18:3], the “concentration that could inhibit the growth of H. Pylori” value [6] is given as 0.2 mM.
In the case of CCCCC/C=C\C/C=C\C/C=C\CCCCC(=O)O [ω-6C18:3, linolenic acid ω-6C18:3], the “concentration that could inhibit the growth of H. Pylori” value [6] is given as 0.2 mM.
